Results taken from patent publication US20110152078A1, “Pesticidal Compound Mixtures” (BAYER CROPSCIENCE AG, priority 2009, published 2011).

What was measured:
Assay type in all cases: in vivo
[1] = tested on: green peach aphid (Myzus persicae); assay: Myzus persicae test (Example A), spray on infested cabbage leaves; settings: single compound
Description: (§1) To produce a suitable preparation of active compound, 1 part by weight of active compound is mixed with the stated amount of solvent and emulsifier, and the concentrate is diluted with emulsifier-containing water to the desired concentration.
(§2) Cabbage leaves (Brassica oleracea) which are heavily infested by the green peach aphid (Myzus persicae) are treated by being sprayed with the preparation of the active compound at the desired concentration.
(§3) After the specified period of time, the mortality in % is determined. 100% means that all the aphids have been killed; 0% means that none of the aphids have been killed.

[2] = tested on: larvae of the fall army worm (Spodoptera frugiperda); assay: Spodoptera frugiperda test (Example C), sprayed cabbage leaves; settings: single compound
Description: as §1
Cabbage leaves (Brassica oleracea) are treated by being sprayed with the preparation of the active compound at the desired concentration and are infested with larvae of the fall army worm (Spodoptera frugiperda) as long as the leaves are still moist.
(§4) After the specified period of time, the mortality in % is determined. 100% means that all the caterpillars have been killed; 0% means that none of the caterpillars have been killed. According to the present application in this test e.g. the following combinations show a synergistic effect in comparison to the single compounds: […]

[3] = tested on: cotton aphid (Aphis gossypii); assay: Aphis gossypii test (Example D), spray on infested cotton leaves; settings: single compound
Description: Solvent: 7 parts by weight of dimethylformamide Emulsifier: 2 parts by weight of alkylaryl polyglycolether
as §1
Cotton leaves (Gossypium hirsutum) which are heavily infested by the cotton aphid (Aphis gossypii) are treated by being sprayed with the preparation of the active compound at the desired concentration.
as §3

[4] = tested on: green peach aphid (Myzus persicae); assay: Myzus persicae test (Example E), spray on infested cabbage leaves; settings: single compound
Description: as §1, §2, §3

[5] = tested on: larvae of the mustard beetle (Phaedon cochleariae); assay: Phaedon cochleariae larvae test (Example B), sprayed cabbage leaves; settings: 144 h, single compound, after 6 d
Description: as §1
Cabbage leaves (Brassica oleracea) are treated by being sprayed with the preparation of the active compound at the desired concentration and are infested with larvae of the mustard beetle (Phaedon cochleariae) as long as the leaves are still moist.
as §4, with “beetle larvae” for “caterpillars”

[6] = Myzus persicae, 144 h, 500 g/ha, after 6 d

SMILES: Cn1cc(C(=O)Nc2ccc(F)cc2-c2ccc(Cl)c(Cl)c2)c(C(F)F)n1 [Bixafen, bixafen]
- Mortality in % after 6 d ([1]; 500 g/ha): 0%
- Mortality in % after 6 d ([2]; 500 g/ha): 17%

SMILES: CSC1=N[C@@](C)(c2ccccc2)C(=O)N1Nc1ccccc1 [Fenamidone, fenamidone]
- mortality at 200 g/ha ([3]; Aphis gossypii, 144 h, 200 g/ha, after 6 d): 0%
- mortality at 200 g/ha ([4]; Myzus persicae, 144 h, 200 g/ha, after 6 d): 0%

SMILES: O=C(NCCc1ncc(C(F)(F)F)cc1Cl)c1ccccc1C(F)(F)F [Fluopyram, fluopyram]
- mortality at 500 g/ha [1, 6]: 0%
- mortality at 500 g/ha ([5]; 500 g/ha): 0%

SMILES: CO/N=C(/C1=NOCCO1)c1ccccc1Oc1ncnc(Oc2ccccc2Cl)c1F [Fluoxastrobin, fluoxastrobin]
- mortality at 500 g/ha [1, 6]: 0%

SMILES: CNC(=O)/C(=N/OC)c1ccccc1Oc1ccccc1 [Metominostrobin, metominostrobin]
- mortality at 500 g/ha [1, 6]: 0%

SMILES: Cc1nn(C)c(F)c1C(=O)Nc1ccccc1C(C)CC(C)C (stereo not drawn) [Penflufen, penflufen]
- Mortality in % after 6 d ([3]; 200 g/ha): 0%
- Mortality in % after 6 d ([4]; 200 g/ha): 0%

SMILES: COC(=O)N(OC)c1ccccc1COc1ccn(-c2ccc(Cl)cc2)n1 [Pyraclostrobin, pyraclostrobin]
- mortality at 500 g/ha [1, 6]: 0%

SMILES: CC1(C)[C@H](C=C(Cl)Cl)[C@H]1C(=O)OCc1c(F)c(F)cc(F)c1F [Transfluthrin]
- mortality at 20 g/ha ([1]; Myzus persicae, 144 h, 20 g/ha, after 6 d): 70%
- mortality at 100 g/ha ([1]; Myzus persicae, 144 h, 100 g/ha, after 6 d): 80%
- mortality at 20 g/ha ([5]; 20 g/ha): 0%
- mortality at 4 g/ha ([2]; Spodoptera frugiperda, 144 h, 4 g/ha, after 6 d): 50%
- mortality at 10 g/ha ([3]; Aphis gossypii, 144 h, 10 g/ha, after 6 d): 5%
- mortality at 10 g/ha ([4]; Myzus persicae, 144 h, 10 g/ha, after 6 d): 0%

SMILES: CON=C(C(=O)OC)c1ccccc1CON=C(C)c1cccc(C(F)(F)F)c1 [Trifloxystrobin, trifloxystrobin]
- mortality at 500 g/ha [1, 6]: 0%
